Measured values taken from ChEMBL document CHEMBL1201862, “PubChem BioAssay data set” (2004).
The source made the active and inactive calls.

How the values were obtained:
[1] = target: Induced myeloid leukemia cell differentiation protein Mcl-1 (Homo sapiens, UniProt Q07820); assay type: functional
Aminopeptidase N = target: T1, Aminopeptidase N (Plasmodium falciparum FcB1/Columbia, UniProt O96935); assay: P. falciparum M1AAP inhibitors, biochemical, fluorogenic H-Leu-NHMec substrate, 1536-well (AID 1445); parameters: species or system Plasmodium falciparum 3D7, 3D7
T1 sequence (O96935 whole entry): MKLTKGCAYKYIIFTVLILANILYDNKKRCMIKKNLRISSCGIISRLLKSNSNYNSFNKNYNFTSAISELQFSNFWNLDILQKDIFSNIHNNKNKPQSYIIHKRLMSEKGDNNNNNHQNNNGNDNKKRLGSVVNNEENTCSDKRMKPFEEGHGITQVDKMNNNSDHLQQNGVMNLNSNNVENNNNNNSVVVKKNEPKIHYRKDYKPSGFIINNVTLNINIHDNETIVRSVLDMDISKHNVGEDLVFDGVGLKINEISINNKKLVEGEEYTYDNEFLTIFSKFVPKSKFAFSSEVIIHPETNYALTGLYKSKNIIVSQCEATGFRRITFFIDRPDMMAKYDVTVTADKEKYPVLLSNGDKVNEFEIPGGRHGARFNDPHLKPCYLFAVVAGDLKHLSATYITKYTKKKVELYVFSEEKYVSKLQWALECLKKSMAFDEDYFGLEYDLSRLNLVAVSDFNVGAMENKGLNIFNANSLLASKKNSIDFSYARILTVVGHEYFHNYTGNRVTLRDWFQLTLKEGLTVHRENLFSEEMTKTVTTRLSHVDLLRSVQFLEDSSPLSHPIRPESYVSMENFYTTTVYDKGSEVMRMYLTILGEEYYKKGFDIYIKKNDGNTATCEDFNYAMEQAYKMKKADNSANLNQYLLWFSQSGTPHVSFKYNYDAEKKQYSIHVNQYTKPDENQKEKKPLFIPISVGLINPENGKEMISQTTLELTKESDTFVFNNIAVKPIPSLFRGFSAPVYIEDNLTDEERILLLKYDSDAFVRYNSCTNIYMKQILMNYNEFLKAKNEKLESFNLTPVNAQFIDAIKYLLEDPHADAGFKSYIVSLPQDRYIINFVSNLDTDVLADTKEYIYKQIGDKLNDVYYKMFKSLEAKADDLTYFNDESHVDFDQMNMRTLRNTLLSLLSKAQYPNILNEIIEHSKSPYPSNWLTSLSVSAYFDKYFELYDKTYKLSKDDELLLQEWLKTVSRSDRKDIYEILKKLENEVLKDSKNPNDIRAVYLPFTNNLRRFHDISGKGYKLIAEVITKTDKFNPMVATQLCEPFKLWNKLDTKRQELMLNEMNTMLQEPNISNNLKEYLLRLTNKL

[2] = intracellular Trypanosoma cruzi inhibitors in host cells – cell-based, plate reader, cherry-pick samples, set 3, dose response (AID 651818); assay type: functional;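 note: compounds incubated with infected cells for about four days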
[3] = target: T2, Heat shock factor protein 1 (Mus musculus, UniProt P38532); assay: HSF1 potentiators in luciferase reporter cells, confirmation, cell-based, NIH3T3, luminescence, dose retest (AID 435004); assay type: functional;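 note: stress induced by proteasome inhibitor MG132 added 30 min after compound; luciferase reporter driven by HSF1 response element in NIH3T3 cells; actives raise luminescence as potentiators of the MG132 stress response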
T2 sequence (P38532 whole entry): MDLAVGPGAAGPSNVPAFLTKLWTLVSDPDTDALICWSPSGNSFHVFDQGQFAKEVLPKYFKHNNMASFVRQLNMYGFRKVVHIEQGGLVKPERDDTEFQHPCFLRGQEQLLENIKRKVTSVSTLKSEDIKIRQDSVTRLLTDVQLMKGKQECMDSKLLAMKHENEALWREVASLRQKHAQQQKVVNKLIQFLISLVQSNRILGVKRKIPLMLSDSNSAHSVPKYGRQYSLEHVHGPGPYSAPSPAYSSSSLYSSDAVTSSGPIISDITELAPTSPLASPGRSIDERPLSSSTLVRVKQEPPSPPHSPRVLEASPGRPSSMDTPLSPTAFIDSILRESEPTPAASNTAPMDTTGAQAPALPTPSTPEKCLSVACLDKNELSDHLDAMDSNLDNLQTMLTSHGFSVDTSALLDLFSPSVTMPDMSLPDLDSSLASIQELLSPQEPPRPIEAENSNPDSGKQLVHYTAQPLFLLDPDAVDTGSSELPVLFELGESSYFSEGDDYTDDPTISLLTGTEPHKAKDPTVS

[4] = target: FAD-linked sulfhydryl oxidase ALR (Homo sapiens, UniProt P55789); assay: inhibitors of human ALR sulfhydryl oxidase, dose response, biochemical, H2O2 detection, luminescence, cherry-pick (AID 493248)
FAD-linked sulfhydryl oxidase ALR, sequence (P55789 whole entry): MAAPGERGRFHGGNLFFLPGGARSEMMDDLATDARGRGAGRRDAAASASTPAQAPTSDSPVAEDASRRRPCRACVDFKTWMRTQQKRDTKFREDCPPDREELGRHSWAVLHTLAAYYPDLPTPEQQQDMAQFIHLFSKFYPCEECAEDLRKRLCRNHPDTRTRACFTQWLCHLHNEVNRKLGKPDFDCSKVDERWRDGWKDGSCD

[5] = target: T3, Replicative DNA helicase DnaB (Mycobacterium tuberculosis, UniProt P9WMR3); assay: DnaB intein splicing inhibitors, dose response, biochemical, cell-free fluorescence (AID 449749); assay type: functional
T3 sequence (P9WMR3 whole entry): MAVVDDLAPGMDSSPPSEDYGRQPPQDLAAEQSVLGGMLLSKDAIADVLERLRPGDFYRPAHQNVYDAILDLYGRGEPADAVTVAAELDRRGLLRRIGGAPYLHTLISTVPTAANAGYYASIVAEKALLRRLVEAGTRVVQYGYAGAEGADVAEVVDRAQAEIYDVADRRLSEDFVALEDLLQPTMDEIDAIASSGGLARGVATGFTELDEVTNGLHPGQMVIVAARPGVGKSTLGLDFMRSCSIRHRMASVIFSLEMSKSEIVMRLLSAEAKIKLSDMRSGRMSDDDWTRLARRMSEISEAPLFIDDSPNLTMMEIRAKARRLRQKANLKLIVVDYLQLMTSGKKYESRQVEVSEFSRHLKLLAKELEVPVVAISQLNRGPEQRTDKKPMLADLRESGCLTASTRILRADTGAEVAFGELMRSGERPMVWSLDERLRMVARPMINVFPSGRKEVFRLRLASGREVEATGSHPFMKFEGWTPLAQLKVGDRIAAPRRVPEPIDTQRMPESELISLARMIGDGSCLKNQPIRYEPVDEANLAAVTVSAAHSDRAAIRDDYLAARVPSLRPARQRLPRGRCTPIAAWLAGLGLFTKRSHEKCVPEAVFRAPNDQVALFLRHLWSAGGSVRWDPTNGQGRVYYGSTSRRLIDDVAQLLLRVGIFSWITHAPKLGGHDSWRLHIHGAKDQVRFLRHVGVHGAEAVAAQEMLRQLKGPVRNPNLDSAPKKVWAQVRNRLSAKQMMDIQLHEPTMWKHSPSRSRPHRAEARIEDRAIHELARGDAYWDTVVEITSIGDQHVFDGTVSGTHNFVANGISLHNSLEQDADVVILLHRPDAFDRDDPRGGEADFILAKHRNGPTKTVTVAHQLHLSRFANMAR

Protein RecA = target: T4, Protein RecA (Mycobacterium tuberculosis, UniProt P9WHJ3); assay: Fluorescence Cell-Free Homogeneous Dose Retest to Identify Inhibitors of RecA-Intein Splicing Activity. [Related pubchem assays (depositor defined):AID2097, AID2223, AID489010, AID492950]; assay type: functional
T4 sequence (P9WHJ3 whole entry): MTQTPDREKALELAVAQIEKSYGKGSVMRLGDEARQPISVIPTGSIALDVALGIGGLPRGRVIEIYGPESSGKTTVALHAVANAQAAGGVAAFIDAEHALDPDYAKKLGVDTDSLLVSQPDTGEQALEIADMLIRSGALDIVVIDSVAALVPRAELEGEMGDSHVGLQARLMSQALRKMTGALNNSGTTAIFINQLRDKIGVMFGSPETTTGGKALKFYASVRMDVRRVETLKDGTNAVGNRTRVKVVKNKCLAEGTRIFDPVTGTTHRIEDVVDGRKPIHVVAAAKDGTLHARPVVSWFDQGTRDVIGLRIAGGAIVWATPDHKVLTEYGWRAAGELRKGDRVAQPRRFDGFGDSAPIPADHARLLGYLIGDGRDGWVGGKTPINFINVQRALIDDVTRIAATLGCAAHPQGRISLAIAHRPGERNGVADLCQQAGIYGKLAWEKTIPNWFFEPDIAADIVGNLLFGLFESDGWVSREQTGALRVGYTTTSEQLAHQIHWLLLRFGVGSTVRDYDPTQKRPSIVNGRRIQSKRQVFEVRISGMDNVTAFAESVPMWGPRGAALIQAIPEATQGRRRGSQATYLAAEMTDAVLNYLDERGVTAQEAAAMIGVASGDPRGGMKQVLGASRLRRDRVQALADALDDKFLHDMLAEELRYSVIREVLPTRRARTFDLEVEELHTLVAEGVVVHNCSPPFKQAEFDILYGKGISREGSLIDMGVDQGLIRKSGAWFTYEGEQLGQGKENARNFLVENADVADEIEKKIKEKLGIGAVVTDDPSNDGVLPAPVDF

[6] = inhibitors of HIV Env-driven cell fusion, dose response, cherry-pick (AID 652057); assay type: functional, cell-based
[7] = inhibitors of intracellular T. cruzi replication, confirmation, NIH3T3 host cells, beta-gal luminescence (AID 2044); assay type: functional, cell-based;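 note: intracellular parasites grown in NIH/3T3 mouse fibroblasts as host cells; luminescent beta-galactosidase reporter signal from transgenic T. cruzi replicating inside host cells; inhibitors lower the luminescence signal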
[8] = cytotoxicity toward NIH3T3 fibroblasts, dose response, counter-screen, cell-based, ATP luminescence, mouse fibroblasts (AID 2010); assay type: functional;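 note: cells exposed to compound for about 90 hours before reading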
Nonstructural protein 1 = Nonstructural protein 1 (Influenza A virus, UniProt Q194T2); assay type: functional, Influenza A virus (A/California/07/2009(H1N1))
Nonstructural protein 1, sequence (Q194T2 whole entry): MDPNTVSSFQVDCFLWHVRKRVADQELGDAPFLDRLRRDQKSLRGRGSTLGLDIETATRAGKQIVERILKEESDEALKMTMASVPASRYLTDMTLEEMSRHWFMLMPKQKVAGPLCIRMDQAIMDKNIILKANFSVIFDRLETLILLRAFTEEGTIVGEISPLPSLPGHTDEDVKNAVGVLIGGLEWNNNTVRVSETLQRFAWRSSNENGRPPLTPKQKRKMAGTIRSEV

INS1 = assay: beta cell apoptosis inhibitors, cytokine rescue, dose response, luminescence, retest (AID 449756); assay type: functional, cell-based; conditions: Rattus norvegicus;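 note: cell death triggered by IL-1 beta plus TNF-alpha plus IFN-gamma mixture; protective hits raise ATP signal compared with cytokine alone wells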
[9] = Shn3 3'UTR reporter inhibitors, dose response, cell-based, Clone20 osteoblasts, firefly luciferase, cherry-picked (AID 624132); assay type: functional;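 note: firefly luciferase luminescence from reporter carrying the Shn3 3'UTR in osteoblasts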
[10] = HepG2 cell cytotoxicity, dose response, cytotoxicity control for Shn3 inhibitor project, CellTiter-Glo, cherry-picked (AID 624134); assay type: functional, cell-based
[11] = control 3'UTR Renilla luciferase suppression, dose response, counter-screen for Shn3 inhibitor project, cell-based, Clone20-Shn3RL, cherry-picked (AID 624133); assay type: functional
Fatty acid synthase [12] = target: T5, Fatty acid synthase (Homo sapiens, UniProt P49327); assay: FAS thioesterase domain inhibitors, dose response, biochemical, endpoint fluorescence intensity, uHTS hits (AID 624327); assay type: functional;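 note: fluorescence from hydrolysis of an O-methyl fluorescein acyl ester substrate by the enzyme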
T5 sequence (P49327 whole entry, the tested form may be a part): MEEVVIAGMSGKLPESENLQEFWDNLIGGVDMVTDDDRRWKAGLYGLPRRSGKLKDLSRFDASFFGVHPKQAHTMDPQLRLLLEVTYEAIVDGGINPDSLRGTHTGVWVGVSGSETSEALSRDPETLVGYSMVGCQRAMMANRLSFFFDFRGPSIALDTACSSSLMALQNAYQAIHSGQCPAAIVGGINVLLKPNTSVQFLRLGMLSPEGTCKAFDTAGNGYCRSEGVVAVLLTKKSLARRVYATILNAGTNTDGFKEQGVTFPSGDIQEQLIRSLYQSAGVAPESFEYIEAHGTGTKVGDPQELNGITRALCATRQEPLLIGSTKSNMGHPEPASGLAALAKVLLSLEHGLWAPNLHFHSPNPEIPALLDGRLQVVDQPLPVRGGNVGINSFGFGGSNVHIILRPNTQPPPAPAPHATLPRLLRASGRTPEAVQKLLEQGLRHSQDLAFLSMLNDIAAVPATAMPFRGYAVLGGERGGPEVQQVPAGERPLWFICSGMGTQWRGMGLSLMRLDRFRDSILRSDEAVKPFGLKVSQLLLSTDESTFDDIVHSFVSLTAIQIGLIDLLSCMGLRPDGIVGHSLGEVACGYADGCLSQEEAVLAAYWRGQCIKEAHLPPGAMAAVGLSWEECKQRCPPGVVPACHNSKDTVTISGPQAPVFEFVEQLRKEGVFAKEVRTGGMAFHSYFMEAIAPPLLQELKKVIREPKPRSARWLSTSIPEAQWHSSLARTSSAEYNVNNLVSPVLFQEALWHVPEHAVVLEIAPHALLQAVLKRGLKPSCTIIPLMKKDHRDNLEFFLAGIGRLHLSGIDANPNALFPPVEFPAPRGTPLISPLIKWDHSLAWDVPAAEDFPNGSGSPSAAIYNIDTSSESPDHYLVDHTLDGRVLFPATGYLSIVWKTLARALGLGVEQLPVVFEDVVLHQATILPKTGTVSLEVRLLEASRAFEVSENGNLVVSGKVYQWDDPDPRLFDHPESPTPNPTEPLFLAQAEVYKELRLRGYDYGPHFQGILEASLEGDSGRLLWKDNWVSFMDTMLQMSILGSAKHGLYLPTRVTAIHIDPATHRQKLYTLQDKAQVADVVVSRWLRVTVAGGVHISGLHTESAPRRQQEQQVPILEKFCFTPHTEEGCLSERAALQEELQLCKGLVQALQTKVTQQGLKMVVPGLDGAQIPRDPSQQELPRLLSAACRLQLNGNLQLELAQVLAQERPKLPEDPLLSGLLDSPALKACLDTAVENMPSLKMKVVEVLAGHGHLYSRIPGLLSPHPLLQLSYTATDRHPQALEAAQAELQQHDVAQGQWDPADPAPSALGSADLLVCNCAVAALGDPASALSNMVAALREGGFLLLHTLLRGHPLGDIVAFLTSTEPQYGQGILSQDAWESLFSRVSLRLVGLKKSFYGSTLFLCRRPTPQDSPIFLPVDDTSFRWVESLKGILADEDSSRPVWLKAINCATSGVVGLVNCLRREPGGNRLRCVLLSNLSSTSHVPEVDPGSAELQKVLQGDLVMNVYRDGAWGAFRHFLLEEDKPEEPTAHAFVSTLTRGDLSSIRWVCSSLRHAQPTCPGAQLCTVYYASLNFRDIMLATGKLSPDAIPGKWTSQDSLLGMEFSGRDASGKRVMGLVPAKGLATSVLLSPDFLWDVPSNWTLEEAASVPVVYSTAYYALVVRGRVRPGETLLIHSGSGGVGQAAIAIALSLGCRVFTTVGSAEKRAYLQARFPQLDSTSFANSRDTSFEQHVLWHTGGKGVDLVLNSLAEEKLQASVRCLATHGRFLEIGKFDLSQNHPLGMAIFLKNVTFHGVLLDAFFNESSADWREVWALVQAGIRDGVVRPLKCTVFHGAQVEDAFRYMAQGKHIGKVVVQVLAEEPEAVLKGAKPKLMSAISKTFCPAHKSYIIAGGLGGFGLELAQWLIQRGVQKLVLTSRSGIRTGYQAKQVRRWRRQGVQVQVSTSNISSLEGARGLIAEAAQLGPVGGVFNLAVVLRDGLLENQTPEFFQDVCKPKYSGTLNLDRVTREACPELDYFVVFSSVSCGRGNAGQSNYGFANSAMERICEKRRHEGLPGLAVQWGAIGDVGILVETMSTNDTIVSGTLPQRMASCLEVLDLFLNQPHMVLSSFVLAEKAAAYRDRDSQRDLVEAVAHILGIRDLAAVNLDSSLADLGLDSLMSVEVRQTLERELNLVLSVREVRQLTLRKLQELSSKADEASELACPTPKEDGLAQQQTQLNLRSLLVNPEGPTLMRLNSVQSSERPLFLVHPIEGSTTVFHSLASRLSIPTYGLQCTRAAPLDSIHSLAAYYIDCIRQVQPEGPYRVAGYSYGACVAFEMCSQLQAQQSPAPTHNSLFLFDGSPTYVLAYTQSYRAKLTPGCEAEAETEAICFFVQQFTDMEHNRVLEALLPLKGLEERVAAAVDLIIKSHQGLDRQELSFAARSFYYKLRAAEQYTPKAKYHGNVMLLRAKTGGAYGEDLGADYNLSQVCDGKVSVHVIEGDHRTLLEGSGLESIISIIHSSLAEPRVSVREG

Fatty acid synthase [13] = target: T5, Fatty acid synthase; assay: FAS thioesterase domain inhibitors, dose response, biochemical, kinetic fluorescence intensity (AID 624326); assay type: functional;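 note: rate of fluorescence rise from hydrolysis of a fluorogenic O-methyl fluorescein ester substrate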

Induced myeloid leukemia cell differentiation protein Mcl-1, sequence (Q07820 whole entry): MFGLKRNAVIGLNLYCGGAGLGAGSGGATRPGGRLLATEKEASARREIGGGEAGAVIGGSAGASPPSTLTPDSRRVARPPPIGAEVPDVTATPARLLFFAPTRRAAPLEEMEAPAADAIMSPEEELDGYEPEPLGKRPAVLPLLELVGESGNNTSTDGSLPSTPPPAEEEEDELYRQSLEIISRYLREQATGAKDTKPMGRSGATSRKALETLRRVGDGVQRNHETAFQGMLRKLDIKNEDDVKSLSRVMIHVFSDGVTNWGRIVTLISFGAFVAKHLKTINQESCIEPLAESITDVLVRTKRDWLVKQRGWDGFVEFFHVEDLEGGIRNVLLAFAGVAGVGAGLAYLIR

Cc1ccc(N2C(=O)NC(=O)/C(=C/c3cnc(-c4ccccc4)nc3)C2=O)cc1C
IC50 [1]: 1.66 µM (active)

O=C(CCN1CCOCC1)Nc1c(O)nc2ccc(Br)cc2c1-c1ccccc1
IC50 (Aminopeptidase N): 93.9 µM (active)

COc1ccc(S(=O)(=O)Nc2ccc3c(c2)CC(=O)N([C@H](C)CO)C[C@@H](C)[C@@H](CN(C)Cc2ccc(-c4ccccc4)cc2)O3)cc1
AC50 [2]: 2.35 µM (active)

C[C@@H]1CCCCO[C@H](CN(C)C(=O)Nc2cccc3ccccc23)[C@@H](C)CN([C@H](C)CO)C(=O)c2cc(NS(=O)(=O)c3ccc(Cl)cc3)ccc2O1
AC50 [2]: 3.37 µM (active)

O=C(CCC1CCCN(C(=O)c2ccc3cc[nH]c3c2)C1)NCc1ccc(F)c(F)c1 (stereo not drawn)
IC50 (Aminopeptidase N): 33.1 µM (active)
EC50 [3]: 38.9 µM (active)

COc1ccccc1C(NC(C)=O)c1c(O)ccc2ccc(O)cc12 (stereo not drawn)
AC50 [4]: 2.44 µM (active)
AC50 [5]: > 380 µM (inactive)
EC50 (Protein RecA): 2.89 µM (active)

C[C@@H]1CN([C@H](C)CO)C(=O)c2cc(NS(=O)(=O)c3ccc(Cl)cc3)ccc2O[C@H]1CN(C)Cc1ccc(Cl)c(Cl)c1
AC50 [2]: 1.81 µM (active)

CC(C)CC#Cc1ccc2c(c1)O[C@@H](CN(C)C(=O)C1CCCCC1)[C@H](C)CN([C@@H](C)CO)S2(=O)=O
AC50 [6]: 27.8 µM (active)

O=C1N/C(=N\c2ccccc2)S/C1=C\C=C\c1ccco1
IC50 [1]: 12.2 µM (active)

CCN(CC)c1ccc(CNc2nc3ccccc3n2CCN2CCCCC2)cc1
EC50 [7]: 3.28 µM (active)
EC50 [8]: 7.56 µM (active)
IC50 (Nonstructural protein 1): 27 µM (active)
AC50 [4]: 0.68 µM (active)
AC50 (INS1): 7.16 µM (active)
AC50 [9]: 2.64 µM (active)
AC50 [10]: 10.2 µM (active)
AC50 [11]: 1.51 µM (active)

CCO/C(O)=C1/C(CC)=Nc2ccccc2N=C1NS(=O)(=O)c1cc(Br)ccc1Br
IC50 (Aminopeptidase N): 30.3 µM (active)

C[C@@H]1CN([C@@H](C)CO)C(=O)c2cccc(NS(=O)(=O)c3ccccc3)c2O[C@@H]1CN(C)Cc1ccc(-c2ccccc2)cc1
AC50 [2]: 3.3 µM (active)

C[C@H]1CN([C@@H](C)CO)C(=O)c2cccc(NC(=O)c3cnccn3)c2O[C@H]1CN(C)Cc1ccc(C(=O)Nc2ccccc2N)cc1
AC50 [2]: 0.803 µM (active)

Cc1ccc(S(=O)(=O)Nc2cc(C)c(O)cc2C)cc1
AC50 [4]: 3.11 µM (active)

COc1cccc(NC(=O)CN2C(=O)COc3ccc(S(=O)(=O)N4CCC(C)CC4)cc32)c1
EC50 [3]: > 260 µM (inactive)
IC50 (Fatty acid synthase [12]): 7.97 µM (active)
IC50 (Fatty acid synthase [13]): 6.57 µM (active)

O=C(NN/C=C1\C(=O)N(c2ccccc2Cl)C(=O)c2ccccc21)c1cccnc1
IC50 (Aminopeptidase N): 32.6 µM (active)

CCc1n[nH]c(C(=O)N2CCCC(Nc3cccc(F)c3)C2)c1C (stereo not drawn)
AC50 [4]: 2.88 µM (active)

C[C@@H]1CCCCO[C@H](CN(C)Cc2ccccc2)[C@@H](C)CN([C@H](C)CO)C(=O)c2cc(NC(=O)Nc3ccc(C(F)(F)F)cc3)ccc2O1
AC50 [2]: 5.97 µM (active)

COc1ccc(C2CC(c3ccccc3)=NN2c2ccccc2)c(C(=O)O)c1OC (stereo not drawn)
AC50 [4]: 4.74 µM (active)

Cc1ccc(NC2CCCN(C(=O)c3cn4cc(Cl)ccc4n3)C2)cc1C (stereo not drawn)
AC50 [4]: 1.01 µM (active)

Cc1ccc(C(=O)NCCSc2snnc2C)cc1
AC50 [4]: 0.117 µM (active)
